Series [1] is described as follows: Effect of EGCG on food intake. It counts as in vivo, rat. On the procedure: (§1) Animal. Adult Sprague-Dawley (SD; Harlan) rats (body weight for male: 170-190 g; for female: 125-145 g) and lean and obese Zucker (Charles River Laboratory) rats (body weight for lean male: 240-260 g; for obese male: 420-440 g) were given free access to a standard rat chow diet and water unless indicated. Animal experimental protocols were approved by the University of Chicago institutional animal care and use committee. Rats were maintained at an ambient temperature of 25° C. under a photoperiod of 12-hour light and 12-hour dark.
In vivo treatment. EGCG and other catechins (>98% pure) were isolated from green tea (Camellia sinensis) in our laboratory as described in Liao et al., Biochem. Biophys. Res. Commun. 214: 833-838 (1995). Catechins were dissolved in water for oral administration and in sterile phosphate buffered saline for ip injection. Rats in control groups received vehicle only. […]
Food-restricted, male SD rats were given 12 g rat chow daily, which was about 50% of the amount consumed daily by each control rat. The body weight and the amount of food and water consumed were monitored daily. Food consumption was monitored in rats caged in groups of 3 to 5 animals by weighing food pellets every 24 hr. […]

The format of series [2] is in vivo, rat. On the procedure: as §1
(§2) In vivo treatment. EGCG and other catechins (>98% pure) were isolated from green tea (Camellia sinensis) in our laboratory as described in Liao et al., Biochem. Biophys. Res. Commun. 214: 833-838 (1995). Catechins were dissolved in water for oral administration and in sterile phosphate buffered saline for ip injection. Rats in control groups received vehicle only. Testosterone propionate (TP) and 5α-dihydrotestosterone propionate (DHTP) were dissolved in sesame oil and 4 mg in 0.5 ml sesame oil (16 mg/kg body weight) was injected subcutaneously daily, when indicated.
(§3) Statistical analysis. Data are expressed as the mean±sem. The unpaired Student's t-test was used to examine differences between control and the EGCG-injected groups. Analysis of variance and Student-Newman-Keuls multiple range test were used to examine differences among various groups. A probability level of 0.05 was used to indicate significance.
Weight change in accessory sexual organs and other organs. An effect of EGCG dosage on the weight of accessory sexual organs was also observed. The weight of androgen-sensitive organs, such as ventral and dorsolateral prostates, seminal vesicles, coagulating glands, and preputial glands were reduced by 50-70% after 7 days of treatment with EGCG (about 85 mg/kg bw). Weight changes in these sexual organs were modulated in a catechin-specific manner. Relative to control animals sacrificed at the start of the experiment, these accessory sexual organs (except preputial gland) in male SD rats were reduced by 30-50% in weight after 7 days of EGCG treatment. […]

A short description of series [3]: Change in composition of blood (serum chemistry, complete blood count). Particulars: rat, in vivo. On the procedure: as §2
(§4) Food-restricted, male SD rats were given 12 g rat chow daily, which was about 50% of the amount consumed daily by each control rat. The body weight and the amount of food and water consumed were monitored daily. Food consumption was monitored in rats caged in groups of 3 to 5 animals by weighing food pellets every 24 hr. On the final day, rats were anesthetized with methoxyflurane and blood was collected by heart puncture. Sera were collected after centrifugation (10,000 g for 20 min at 4° C.) for biochemical analysis.
Biochemical analysis. […]
Change in composition of blood. Male SD rats were treated with EGCG and ECG for 7 days and then their serum and whole blood was analyzed for various components. […]

Series [4] deals with sex hormones, leptin, IGF-I, insulin, LH and GH. Kind of series: Change in levels of sex hormones, leptin, IGF-I, insulin, LH and GH (radioimmunoassay of serum). It counts as in vivo, rat. Here is the method: as §1, §2, §4
(§5) Biochemical analysis. For biochemical analysis, commercially available radioimmunoassay kits for IGF-I and testosterone (Diagnostic Systems Laboratory, Inc), LH and GH (Amersham), leptin and insulin (Linco Research Inc), and corticosterone (ICN) and analytical kits for glycerol and triglyceride (Sigma) and fatty acids (Roche Molecular Biochemicals) were used. Proximate composition analysis of rats was performed by COVANCE Laboratory (Madison, Wis.). Complete blood count and serum chemistry (e.g., cholesterols, glucose, and enzymatic activities) were performed by the Animal Resource Center at the University of Chicago.
as §3
Change in levels of sex hormones, leptin, IGF-I, insulin, LH and GH. […] After 7 days of treatment with EGCG (about 85 mg/kg bw), circulating testosterone was reduced by about 70% in male SD rats. Similarly, the circulating level of 17β-estradiol was reduced by 34% in females after 7 days of EGCG treatment. […] However, the pulsatile nature of GH secretion prevented us from making definite conclusions about changes in circulating levels of GH in these rats. The effect of EGCG on sex hormones and various peptide hormones investigated was not mimicked by ECG which has one less hydroxyl group than EGCG.

A short description of series [5]: Body weight of rats treated with EGCG. It counts as in vivo, rat. Here is the method:
as §1, §2, §4, §3
Body weight of subjects treated with EGCG. […] In male SD rats, the effect of EGCG on body weight was dose-dependent. […] Male SD rats injected daily ip with 26 and 53 mg EGCG/kg bw gained body weight by 17-24% relative to their initial body weight, but lost 5-9% relative to the control after 7 days of treatment. Whereas, male SD rats daily injected ip with 85 mg EGCG/kg bw lost 15-21% of their body weight relative to their initial weight and 30-41% relative to the control after 7 days of treatment. Control rats continued growth and increased their body weight by 25-34% relative to their initial weight (see Table 1). Female SD rats injected daily ip with 12.5 mg EGCG (about 92 mg/kg bw) lost 10% of their body weight relative to their initial weight and 29% relative to the control after 7 days of treatment. Therefore, a dose of EGCG of 70-92 mg/kg body weight was used in most experiments.

Series [6] in a line: Exogenous androgen (TP or DHTP) co-administered with EGCG. It counts as in vivo, rat. On the procedure: as §2
Effects of exogenous androgen reverses the effect of EGCG on accessory sexual organs. To determine if the reduction in weight of accessory sexual organs was due to EGCG-induced reduction in androgen levels, we injected male SD rats with androgen and/or EGCG.

A short description of series [7]: Change in serum nutrients and proximate body composition. It counts as in vivo, rat. Here is the method:
as §1, §2, §4, §5, §3
Change in serum nutrients and proximate body composition.

Setting [8] is: male and female SD rats, 7 days.
Setting [9] is: female SD rats, 12.5 mg EGCG (about 92 mg/kg bw) ip daily, 7 days.
Setting [10] is: male SD rats, 85 mg EGCG/kg bw ip daily, 7 days.
The mark [11] stands for this setting: male SD rats, 26 and 53 mg EGCG/kg bw ip daily, 7 days.
Where [12] appears, read: male SD and lean Zucker rats, within 7 to 8 days.

The source of these data is patent US6610749B2, “Polyhydroxylated benzene-containing compounds” (ARCH Development Corporation, priority 2000, dated 2003).

As for `O=C(OC1Cc2c(O)cc(O)cc2OC1c1cc(O)c(O)c(O)c1)c1cc(O)c(O)c(O)c1` (single isomer, unassigned; (-)) [EGCG, (−)epigallocatechin-3-gallate], the “less food consumed than control rats” value in series [1] (SD male and female rats, ip) was 50-60%. In series [1] (oral administration), the “effects of EGCG when administered orally compared with intraperitoneally” value is reported as “diminished or absent”. Further, the “reduction in weight of androgen-sensitive organs (ventral and dorsolateral prostates, seminal vesicles, coagulating glands, preputial glands)” value in series [2] (about 85 mg/kg bw, 7 days, male rats) is on record as 50-70%. Also, in series [2] (female SD rats, 7 days of treatment), the “reduction in weight of estrogen-sensitive organs (uterus and ovary)” value is recorded as “about 50%”. For the same compound, the “reduction in weight of accessory sexual organs (except preputial gland) relative to control animals sacrificed at the start of the experiment” value in series [2] (male SD rats, 7 days of treatment) is on record as 30-50%. Besides, the “serum total protein, albumin, blood urea nitrogen, creatine, PO4 3−, Na+, K+, Ca2+, Cl−, lactate dehydrogenase, alanine aminotransferase, aspartate aminotransferase, γ-glutamyltranspeptidase” value in series [3] is recorded as “Neither EGCG nor structurally-related ECG caused significant changes”. Besides, in series [4] (female SD rats, 7 days), the “reduction of circulating level of 17β-estradiol” value is given as 34% and the “serum level of GH” value is “reduced in females”. In addition, the “dose dependence of effects on serum testosterone, leptin, IGF-I and insulin” value in series [4] (male SD rats) is on record as “Dose-dependent effects”. In addition, in series [4] (male SD rats, 7 days), the “serum level of GH” value is “increased in males”. Further, the “reduction of circulating testosterone” value in series [4] (male SD rats, about 85 mg/kg bw, 7 days) is on record as “about 70%”. For the same compound, in series [4] (setting [8]), the “blood level of IGF-I” value is “significant reduction”, the “blood level of insulin” value is “significant reduction”, the “blood level of leptin” value is given as “significant reduction” and the “reduction of serum level of LH” value was 40-50%. In addition, the “effectiveness in reducing body weight compared with 15 mg (about 85 mg/kg)” value in series [5] (5 or 10 mg EGCG (26 and 53 mg/kg body weight) injected daily, male SD rats) is given as “not effective or less effective”. Besides, in series [5] (IP injection, SD male and female rats, within 2 to 7 days of treatment), the body weight loss result is listed as “caused acute body weight loss”. In addition, in series [5] (setting [9]), the “body weight lost relative to initial weight” value is given as 10% and the “body weight lost relative to the control” value turned out to be 29%. Besides, in series [5] (setting [10]), the “body weight lost relative to initial weight” value is reported as 15-21% and the “body weight lost relative to the control” value is given as 30-41%. Besides, in series [5] (setting [11]), the “body weight gain relative to initial body weight” value was 17-24% and the “body weight lost relative to the control” value was 5-9%. The “effect on body weight, dose dependence” value in series [5] (male SD rats, ip daily) was “dose-dependent”. The “EGCG-induced body weight loss, food intake restriction, decreases in circulating leptin, IGF-I, insulin and LH, increase in GH under androgen administration” value in series [6] (male SD rats, androgen co-administered) is “androgen administration was not able to prevent”. Moreover, in series [6] (male rats injected daily with TP or DHTP (16 mg/kg sc)), the prostate weight loss entry was “did not cause prostate weight loss”. Also, the “percent water and protein content (proximate composition)” value in series [7] (SD rats treated daily for 7 days) is “no change”. The “carbohydrate content (proximate composition)” value in series [7] (SD rats treated daily for 7 days, 2.5% in control) was 1.3%. The “fat content (proximate composition)” value in series [7] (SD rats treated daily for 7 days, 4.1% in control) is listed as 1.4%. Moreover, in series [7] (setting [12]), the “decrease of abdominal fat” value is 20-35%, the “decrease of epididymal fat” value is reported as “not epididymal fat” and the “decrease of subcutaneous fat” value is 40-70%. Further, in series [7] (male SD rats), the “change in serum cholesterol” value was −20%, the “change in serum glucose” value is −32%, the “change in serum lipids” value is given as −15% and the “change in serum triglycerides” value was −46%. For the same compound, the “serum level of protein, fatty acids and glycerol” value in series [7] (male SD rats) is on record as “not altered”. Further, the “loss of abdominal fat” value in series [7] (obese male Zucker rats, within 4 days) is reported as 20%.
Turning to “(−)epicatechin-3-gallate [ECG, reference compound]”, the “effect on sex hormones and various peptide hormones, compared with the effect of EGCG” value in series [4] (rats) is reported as “not mimicked”.
